{
  "source": "patent US10253052B2",
  "about": "“HBED-bisphosphonates, radiometal conjugates and their use as theranostic agents” (Five Eleven Pharma Inc., priority 2015, dated 2019)",
  "key": {"[1]": {"test_system": "PSMA positive LNCaP cells", "assay": "Cell uptake in PSMA positive LNCaP cells", "type": "cell-based", "conditions": "1 hr incubation at 37° C."}, "[2]": {"assay": "In vivo biodistribution in mice", "set-up": "species or system normal CD-1 male mice", "conditions": "for bone to blood ratio / bone to muscle ratio / Biodistribution: Blood / Biodistribution: Bone / Biodistribution: Brain / Biodistribution: Heart / Biodistribution: Kidney / Biodistribution: Liver / Biodistribution: Lung / Biodistribution: Muscle / Biodistribution: Pancreas / Biodistribution: Skin / Biodistribution: Spleen: iv", "in_short": "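Uptake values are % injected dose per gram of wet tissue, from gamma counting of weighed organs with tibia plus femur taken as bone. Tracers (20-30 μCi per animal) were given i.v. to healthy male CD-1 mice (25-30 g), with sacrifice at 2, 30, 60 and 120 min post injection.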"}, "[3]": {"assay": "In vitro binding to hydroxyapatite", "conditions": "20 mg hydroxyapatite in saline, 10 min at room temperature", "in_short": "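Binding is given as the percentage of ^68Ga activity retained by hydroxyapatite, measured by gamma counting of the solid versus the pooled supernatant and saline washes. The tracer (1 μCi) was exposed for 10 min at room temperature to hydroxyapatite pre-soaked 24 h in isotonic saline.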"}, "[4]": {"assay": "Micro-PET imaging in normal mice", "type": "in vivo, normal CD-1 male mice", "conditions": "15 min scan at 60 min post-injection", "experimental": "[^68Ga]1a, [^68Ga]BPAMD and [^18F]NaF were tested in normal CD-1 male mice. [^68Ga]1g was tested in PSMA expressing LNCaP tumor bearing nude mice. Mice received 300-500 uCi radiotracer through a tail vein injection. PET imaging was performed under isoflurane anaesthesia (2% isoflurane, 1.5 L/min oxygen). The microPET imaging was performed with a small animal PET (Mosaic by Phillips, USA). During PET measurements, the animals were placed in the prone position. At 60 min post injection of the radiotracer, data acquisition was performed for 15 min."}},
  "data": [
    {"molecule": "O=C(O)CCC(CP(=O)(O)O)C(=O)O", "note": "(centres unmarked) [2-PMPA, 2-(phosphonomethyl)pentane-1,5-dioic acid, reference compound]", "values": [
      {"measurement": "Blocking of [68Ga]1g cell uptake to PSMA positive LNCaP cells", "setting": "[1]", "result": "blocked the cell uptake"}
    ]},
    {"molecule": "O=C(O)CN1CCN(CC(=O)O)CCN(CC(=O)NC(P(=O)(O)O)P(=O)(O)O)CCN(CC(=O)O)CC1.[68Ga]", "note": "[[^68Ga]BPAMD, reference compound]", "values": [
      {"measurement": "bone to blood ratio", "setting": "[2]; 2 min", "result": 0.8},
      {"measurement": "bone to muscle ratio", "setting": "[2]; 2 min", "result": 4.3},
      {"measurement": "Biodistribution: Blood", "setting": "[2]; 2 min post injection", "result": "9.45 ± 0.55", "unit": "% dose/g"},
      {"measurement": "Biodistribution: Bone", "setting": "[2]; 2 min post injection", "result": "7.07 ± 0.94", "unit": "% dose/g"},
      {"measurement": "Biodistribution: Brain", "setting": "[2]; 2 min post injection", "result": "0.26 ± 0.01", "unit": "% dose/g"},
      {"measurement": "Biodistribution: Heart", "setting": "[2]; 2 min post injection", "result": "2.74 ± 0.23", "unit": "% dose/g"},
      {"measurement": "Biodistribution: Kidney", "setting": "[2]; 2 min post injection", "result": "22.1 ± 8.80", "unit": "% dose/g"},
      {"measurement": "Biodistribution: Liver", "setting": "[2]; 2 min post injection", "result": "1.92 ± 0.31", "unit": "% dose/g"},
      {"measurement": "Biodistribution: Lung", "setting": "[2]; 2 min post injection", "result": "4.58 ± 0.36", "unit": "% dose/g"},
      {"measurement": "Biodistribution: Muscle", "setting": "[2]; 2 min post injection", "result": "1.63 ± 0.35", "unit": "% dose/g"},
      {"measurement": "Biodistribution: Pancreas", "setting": "[2]; 2 min post injection", "result": "1.73 ± 0.11", "unit": "% dose/g"},
      {"measurement": "Biodistribution: Skin", "setting": "[2]; 2 min post injection", "result": "2.57 ± 0.53", "unit": "% dose/g"},
      {"measurement": "Biodistribution: Spleen", "setting": "[2]; 2 min post injection", "result": "1.90 ± 0.14", "unit": "% dose/g"},
      {"measurement": "bone to blood ratio", "setting": "[2]; 30 min", "result": 10},
      {"measurement": "bone to muscle ratio", "setting": "[2]; 30 min", "result": 19},
      {"measurement": "Biodistribution: Blood", "setting": "[2]; 30 min (0.5 hr) post injection", "result": "1.02 ± 0.19", "unit": "% dose/g"},
      {"measurement": "Biodistribution: Bone", "setting": "[2]; 30 min (0.5 hr) post injection", "result": "10.5 ± 0.6", "unit": "% dose/g"},
      {"measurement": "Biodistribution: Brain", "setting": "[2]; 30 min (0.5 hr) post injection", "result": "0.06 ± 0.02", "unit": "% dose/g"},
      {"measurement": "Biodistribution: Heart", "setting": "[2]; 30 min (0.5 hr) post injection", "result": "0.29 ± 0.02", "unit": "% dose/g"},
      {"measurement": "Biodistribution: Kidney", "setting": "[2]; 30 min (0.5 hr) post injection", "result": "1.46 ± 0.19", "unit": "% dose/g"},
      {"measurement": "Biodistribution: Liver", "setting": "[2]; 30 min (0.5 hr) post injection", "result": "0.22 ± 0.02", "unit": "% dose/g"},
      {"measurement": "Biodistribution: Lung", "setting": "[2]; 30 min (0.5 hr) post injection", "result": "0.50 ± 0.16", "unit": "% dose/g"},
      {"measurement": "Biodistribution: Muscle", "setting": "[2]; 30 min (0.5 hr) post injection", "result": "0.55 ± 0.11", "unit": "% dose/g"},
      {"measurement": "Biodistribution: Pancreas", "setting": "[2]; 30 min (0.5 hr) post injection", "result": "0.27 ± 0.14", "unit": "% dose/g"},
      {"measurement": "Biodistribution: Skin", "setting": "[2]; 30 min (0.5 hr) post injection", "result": "0.39 ± 0.15", "unit": "% dose/g"},
      {"measurement": "Biodistribution: Spleen", "setting": "[2]; 30 min (0.5 hr) post injection", "result": "0.22 ± 0.14", "unit": "% dose/g"},
      {"measurement": "bone to blood ratio", "setting": "[2]; 60 min", "result": 10},
      {"measurement": "bone to muscle ratio", "setting": "[2]; 60 min", "result": 30},
      {"measurement": "Biodistribution: Blood", "setting": "[2]; 60 min (1 hr) post injection", "result": "0.93 ± 0.06", "unit": "% dose/g"},
      {"measurement": "Biodistribution: Bone", "setting": "[2]; 60 min (1 hr) post injection", "result": "9.21 ± 0.90", "unit": "% dose/g"},
      {"measurement": "Biodistribution: Brain", "setting": "[2]; 60 min (1 hr) post injection", "result": "0.04 ± 0.00", "unit": "% dose/g"},
      {"measurement": "Biodistribution: Heart", "setting": "[2]; 60 min (1 hr) post injection", "result": "0.37 ± 0.06", "unit": "% dose/g"},
      {"measurement": "Biodistribution: Kidney", "setting": "[2]; 60 min (1 hr) post injection", "result": "2.88 ± 1.51", "unit": "% dose/g"},
      {"measurement": "Biodistribution: Liver", "setting": "[2]; 60 min (1 hr) post injection", "result": "0.25 ± 0.03", "unit": "% dose/g"},
      {"measurement": "Biodistribution: Lung", "setting": "[2]; 60 min (1 hr) post injection", "result": "0.51 ± 0.09", "unit": "% dose/g"},
      {"measurement": "Biodistribution: Muscle", "setting": "[2]; 60 min (1 hr) post injection", "result": "0.31 ± 0.04", "unit": "% dose/g"},
      {"measurement": "Biodistribution: Pancreas", "setting": "[2]; 60 min (1 hr) post injection", "result": "0.30 ± 0.02", "unit": "% dose/g"},
      {"measurement": "Biodistribution: Skin", "setting": "[2]; 60 min (1 hr) post injection", "result": "0.60 ± 0.08", "unit": "% dose/g"},
      {"measurement": "Biodistribution: Spleen", "setting": "[2]; 60 min (1 hr) post injection", "result": "0.21 ± 0.02", "unit": "% dose/g"},
      {"measurement": "bone to blood ratio", "setting": "[2]; 120 min", "result": 11},
      {"measurement": "bone to muscle ratio", "setting": "[2]; 120 min", "result": 33},
      {"measurement": "Biodistribution: Blood", "setting": "[2]; 120 min post injection", "result": "0.90 ± 0.41", "unit": "% dose/g"},
      {"measurement": "Biodistribution: Bone", "setting": "[2]; 120 min post injection", "result": "9.62 ± 0.71", "unit": "% dose/g"},
      {"measurement": "Biodistribution: Brain", "setting": "[2]; 120 min post injection", "result": "0.03 ± 0.01", "unit": "% dose/g"},
      {"measurement": "Biodistribution: Heart", "setting": "[2]; 120 min post injection", "result": "0.26 ± 0.07", "unit": "% dose/g"},
      {"measurement": "Biodistribution: Kidney", "setting": "[2]; 120 min post injection", "result": "1.09 ± 0.26", "unit": "% dose/g"},
      {"measurement": "Biodistribution: Liver", "setting": "[2]; 120 min post injection", "result": "0.31 ± 0.11", "unit": "% dose/g"},
      {"measurement": "Biodistribution: Lung", "setting": "[2]; 120 min post injection", "result": "0.45 ± 0.10", "unit": "% dose/g"},
      {"measurement": "Biodistribution: Muscle", "setting": "[2]; 120 min post injection", "result": "0.29 ± 0.06", "unit": "% dose/g"},
      {"measurement": "Biodistribution: Pancreas", "setting": "[2]; 120 min post injection", "result": "0.33 ± 0.07", "unit": "% dose/g"},
      {"measurement": "Biodistribution: Skin", "setting": "[2]; 120 min post injection", "result": "0.55 ± 0.04", "unit": "% dose/g"},
      {"measurement": "Biodistribution: Spleen", "setting": "[2]; 120 min post injection", "result": "0.25 ± 0.08", "unit": "% dose/g"},
      {"measurement": "Biodistribution result in words (organ uptake, retention, excretion)", "setting": "[2]; normal mice after iv injection", "result": "less bone uptake and retention"},
      {"measurement": "Hydroxyapatite Binding (%)", "setting": "[3]", "result": "90.6 ± 6.0", "unit": "%"},
      {"measurement": "Micro-PET localization (in words)", "setting": "[4]", "result": "localized in the spines of mice"}
    ]}
  ]
}
